Laboratory results taken from patent US20020002140A1, “Novel bisphosphonates and uses thereof” (priority 2000, published 2002).
Where two headings read alike, the source gives them in different places.

Legend:
[1] = given orally; cited from earlier work
osteoclasts = assay: Assay of bone resorption in vitro (bone slice assay); format: cell-based; settings: chick embryo bone cells on dentine discs; FIG. 1 (MH2 vs MH3), FIG. 2 (alendronate vs glucoside)
Procedure: Resorption lacunae where identified and quantitated using an Olympus BH2 microscope fitted for incident light microscopy. The plan area of resorption was determined by point counting using a ×10 objective and a drawing tube. The total area of each disc was analyzed.

[2] = test system: bone cell suspension, including osteoclasts and other cell types; settings: FIG. 3, concentrations up to 10^−4M, Sodium Salt
From the text: Sterile, devitalized discs of dentine (diameter 4 mm) where prepared and placed in a 96 well tissue culture plate, one disc per well, and pre-wet overnight in α-MEM tissue culture medium supplemented with 10% fetal calf serum. The femora and tibiae where dissected from 18 day chick embryos and transferred into α-MEM culture medium supplemented with 10% fetal calf serum.
The bones were finely minced using a sharp scalpel and the resulting suspension was triturated using a sterile pipette and transferred to a sterile plastic tube. The suspension was allowed to stand for one minute so that fragments of bone and other debris settled and the upper layer containing a bone cell suspension, including osteoclasts and other cell types, was harvested.
Aliquots of this bone cell suspension were added to the culture wells containing the devitalized dentine discs. Cells where allowed to settle for between 2 and 24 hours. The medium was then removed and new medium containing the test reagents was added. Cells where cultured for periods of time up to 72 hours after which time the dentine discs were washed in PBS at 37° C., fixed in 4% glutaraldehyde in 0.2 M sodium cacodylate, and stained for 5 minutes in 1% (w/v) toluidine blue in 0.5% disodium tetraborate. Excess stain was removed by washing in 70% ethanol for one minute. The dentine discs were then washed in tap water and air-dried.

## NCCCC(O)(P(=O)(O)O)P(=O)(O)O [FOSAMAX, alendronate sodium]
[1]
  drug absorbed from the gut, on average: about 0.7%

## CC(Nc1ccc(O)cc1)(P(=O)(O)O)P(=O)(O)O [MH2, 1-((4-hydroxyphenyl)amino)ethylidene-1,1-diphosphonic acid]
osteoclasts
  effect on bone resorption (plan area of resorption lacunae on dentine discs): substantially less effect than MH3

## O=P([O-])(O)C(O)(CCCNC1O[C@H](CO)[C@@H](O)[C@H](O)[C@H]1O)P(=O)(O)O.[Na+] (stereo partly shown) [glucoside, N-glucopyranosyl Alendronate Sodium Salt]
[2]
  toxicity (cell number): substantially no toxicity
[2]; listed as alendronate glycoside
  toxicity (cell number): substantially less toxicity than unglycosylated alendronate
